The text below walks through data of BindingDB's records for doi:10.1016/j.ejmech.2013.04.056 (Jamia Hamdard (Hamdard University), 2013).

This assay has as its target T1, Prostaglandin G/H synthase 1 (Ovis aries, UniProt P05979).
T1 sequence (P05979 whole entry): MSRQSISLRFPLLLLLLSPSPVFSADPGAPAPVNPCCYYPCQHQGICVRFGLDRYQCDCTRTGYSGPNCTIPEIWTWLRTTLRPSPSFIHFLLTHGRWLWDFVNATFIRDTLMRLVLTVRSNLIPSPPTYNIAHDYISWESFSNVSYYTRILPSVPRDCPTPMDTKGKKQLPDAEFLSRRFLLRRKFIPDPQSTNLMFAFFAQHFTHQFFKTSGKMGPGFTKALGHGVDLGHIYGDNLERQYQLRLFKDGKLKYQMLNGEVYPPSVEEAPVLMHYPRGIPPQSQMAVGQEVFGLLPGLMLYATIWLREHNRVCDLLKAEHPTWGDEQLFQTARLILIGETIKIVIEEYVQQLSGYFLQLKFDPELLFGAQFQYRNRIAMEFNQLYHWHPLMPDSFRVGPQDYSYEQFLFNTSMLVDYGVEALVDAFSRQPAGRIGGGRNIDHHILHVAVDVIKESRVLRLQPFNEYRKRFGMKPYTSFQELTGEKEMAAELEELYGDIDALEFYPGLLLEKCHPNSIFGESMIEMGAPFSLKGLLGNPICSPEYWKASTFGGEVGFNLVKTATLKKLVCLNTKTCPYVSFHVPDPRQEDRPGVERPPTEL
As to the kind of experiment: Inhibition of ovine COX1.

SMILES strings stand for the structures.

For `COc1cc(/C=C/C(=O)c2c(O)cc(C)c(Cl)c2C)cc(OC)c1OC`, the IC50 amounted to 87.5 µM. This lies in the double-digit micromolar range.

As usually defined, the IC50 is the concentration needed to halve the response being measured. Lower therefore signals inhibition by little substance.
